{"source": "patent US7981936B2", "about": "“Crystalline ACAT inhibitor” (Graceway Pharmaceuticals, LLC, priority 2005, dated 2011)"}
{"smiles": "CC(C)c1cccc(C(C)C)c1NC(=O)CC(=O)N(Cc1ccccc1)C(C)C", "note": "[Form A polymorph, N-benzyl-N′-(2,6-diisopropyl-phenyl)-N-isopropyl-malonamide]", "values": [{"measurement": "melting point", "value": 102.3, "unit": "°C"}]}
